From patent publication US20230203043A1, “NOVEL IMIDAZOPYRAZINE DERIVATIVES” (Hoffmann-La Roche Inc., priority 2020, published 2023)
Where a name gives a salt, the structure may show the parent alone.

The compounds below were run on Acinetobacter baumannii ATCC17961 (assay: Antimicrobial susceptibility testing: 90% growth inhibitory concentration (IC90) determination in Iso-Sensitest broth, OD600 growth). Conditions: Acinetobacter baumannii, ATCC17961, 16 h, read-out: A. baumannii ATCC 17961 IC90 (uM), strain ATCC 17961, OD600 growth over 16 h.
Format: cell-based
In short: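 Each strain, at about 5×10^(5) CFU/ml, was incubated with twofold dilutions of compound at 35±2° C for 16 h, and IC90 was calculated from kinetic optical density measured at 600 nm during logarithmic growth.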

Structure (SMILES) | IC90
N#CCn1cc(-c2cnc3c(Nc4ccc(C(=O)N5CCN(C(=O)C6CC(N)C6)CC5)c(Cl)c4)nccn23)c(C(F)(F)F)n1 (stereo not shown) [Example 189, 2-[4-[8-[4-[4-(3-aminocyclobutanecarbonyl)piperazine-1-carbonyl]-3-chloroanilino]imidazo[1,2-a]pyrazin-3-yl]-3-(trifluoromethyl)pyrazol-1-yl]acetonitrile formate] | 0.204 µM
N#CCn1cc(-c2cnc3c(Nc4ccc(C(=O)N5CCN(C(=O)[C@H]6CC[C@@H](N)C6)CC5)c(Cl)c4)nccn23)c(C(F)(F)F)n1 [Example 192, 2-[4-[8-[4-[4-[(1S,3R)-3-aminocyclopentanecarbonyl]piperazine-1-carbonyl]-3-chloroanilino]imidazo[1,2-a]pyrazin-3-yl]-3-(trifluoromethyl)pyrazol-1-yl]acetonitrile formate] | 0.208 µM
CCc1cc(Nc2nccn3c(-c4c[nH]nc4C(F)(F)F)cnc23)ccc1C(=O)NCCCNC(=O)NCCN [Example 193, N-[3-(2-aminoethylcarbamoylamino)propyl]-2-ethyl-4-[[3-[3-(trifluoromethyl)-1H-pyrazol-4-yl]imidazo[1,2-a]pyrazin-8-yl]amino]benzamide formate] | 0.244 µM
CCc1cc(Nc2nccn3c(-c4c[nH]nc4C(F)(F)F)cnc23)ccc1C(=O)NCCCNC(=O)[C@@H](N)CCCCN [Example 195, N-[3-[[(2S)-2,6-diaminohexanoyl]amino]propyl]-2-ethyl-4-[[3-[3-(trifluoromethyl)-1H-pyrazol-4-yl]imidazo[1,2-a]pyrazin-8-yl]amino]benzamide formate] | 0.331 µM
N#CCn1cc(-c2cnc3c(Nc4ccc(C(=O)NC5CCC(N)CC5)c(Cl)c4)nccn23)c(C(F)(F)F)n1 (stereo not shown) [Example 199, N-(4-aminocyclohexyl)-2-chloro-4-[[3-[1-(cyanomethyl)-3-(trifluoromethyl)pyrazol-4-yl]imidazo[1,2-a]pyrazin-8-yl]amino]benzamide formate] | 0.336 µM
N[C@H]1CN[C@H](C(=O)N2CCN(C(=O)c3ccc(Nc4nccn5c(-c6c[nH]nc6C(F)(F)F)cnc45)cc3Cl)CC2)C1 [Example 200, [4-[(2S,4R)-4-aminopyrrolidine-2-carbonyl]piperazin-1-yl]-[2-chloro-4-[[3-[3-(trifluoromethyl)-1H-pyrazol-4-yl]imidazo[1,2-a]pyrazin-8-yl]amino]phenyl] methanone formate] | 0.372 µM
N#CCn1cc(-c2cnc3c(Nc4ccc(C(=O)NOCCN)c(Cl)c4)nccn23)c(C(F)(F)F)n1 [Example 201, N-(2-aminoethoxy)-2-chloro-4-[[3-[1-(cyanomethyl)-3-(trifluoromethyl)pyrazol-4-yl]imidazo[1,2-a]pyrazin-8-yl]amino]benzamide formate] | 0.486 µM
N=C(N)NC[C@H](N)C(=O)NCCCNC(=O)c1ccc(Nc2nccn3c(-c4c[nH]nc4C(F)(F)F)cnc23)cc1Cl [Example 211, N-[3-[[(2S)-2-amino-3-carbamimidamidopropanoyl]amino]propyl]-2-chloro-4-[[3-[3-(trifluoromethyl)-1H-pyrazol-4-yl]imidazo[1,2-a]pyrazin-8-yl]amino]benzamide formate] | 0.284 µM
CCc1cc(Nc2nccn3c(-c4c[nH]nc4C(F)(F)F)cnc23)ccc1C(=O)NCCCNC(=O)CCN [Example 212, N-[3-(3-aminopropanoylamino)propyl]-2-ethyl-4-[[3-[3-(trifluoromethyl)-1H-pyrazol-4-yl]imidazo[1,2-a]pyrazin-8-yl]amino]benzamide formate] | 0.296 µM

Same assay, conditions: Acinetobacter baumannii, ATCC17961, 16 h, strain ATCC 17961, OD600 growth over 16 h, read-out: A. baumannii ATCC 17961 IC90

Structure (SMILES) | IC90
C[C@@H](N)C(=O)N1CCN(C(=O)c2ccc(Nc3nccn4c(-c5cn(CC#N)nc5C(F)(F)F)cnc34)cc2Cl)CC1 [Example 188, 2-[4-[8-[4-[4-[(2R)-2-aminopropanoyl]piperazine-1-carbonyl]-3-chloroanilino]imidazo[1,2-a]pyrazin-3-yl]-3-(trifluoromethyl)pyrazol-1-yl]acetonitrile] | 0.197 µM
N#CCn1cc(-c2cnc3c(Nc4ccc(C(=O)N5CCN(C(=O)[C@H]6CCNC6)CC5)c(Cl)c4)nccn23)c(C(F)(F)F)n1 [Example 190, 2-[4-[8-[3-chloro-4-[4-[(3S)-pyrrolidine-3-carbonyl]piperazine-1-carbonyl]anilino]imidazo[1,2-a]pyrazin-3-yl]-3-(trifluoromethyl)pyrazol-1-yl]acetonitrile] | 0.245 µM
N#CCn1cc(-c2cnc3c(Nc4ccc(C(=O)N5CCN(C(=O)[C@@H]6CCNC6)CC5)c(Cl)c4)nccn23)c(C(F)(F)F)n1 [Example 191, 2-[4-[8-[3-chloro-4-[4-[(3R)-pyrrolidine-3-carbonyl]piperazine-1-carbonyl]anilino]imidazo[1,2-a]pyrazin-3-yl]-3-(trifluoromethyl)pyrazol-1-yl]acetonitrile] | 0.276 µM
N#CCn1cc(-c2cnc3c(Nc4ccc(C(=O)N5CCN(C(=O)[C@@H]6CC[C@H](N)C6)CC5)c(Cl)c4)nccn23)c(C(F)(F)F)n1 [Example 194, 2-[4-[8-[4-[4-[(1R,3S)-3-aminocyclopentanecarbonyl]piperazine-1-carbonyl]-3-chloroanilino]imidazo[1,2-a]pyrazin-3-yl]-3-(trifluoromethyl)pyrazol-1-yl]acetonitrile formate] | 0.274 µM
C=CCNCCCNC(=O)c1ccc(Nc2nccn3c(-c4c[nH]nc4C(F)(F)F)cnc23)cc1CC [Example 196, 2-ethyl-N-[3-(prop-2-enylamino)propyl]-4-[[3-[3-(trifluoromethyl)-1H-pyrazol-4-yl]imidazo[1,2-a]pyrazin-8-yl]amino]benzamide] | 0.674 µM
O=C(c1ccc(Nc2nccn3c(-c4c[nH]nc4C(F)(F)F)cnc23)cc1Cl)N1CCN(C(=O)[C@@H]2CCNC2)CC1 [Example 197, [2-chloro-4-[[3-[3-(trifluoromethyl)-1H-pyrazol-4-yl]imidazo[1,2-a]pyrazin-8-yl]amino]phenyl]-[4-[(3R)-pyrrolidine-3-carbonyl]piperazin-1-yl]methanone] | 0.16 µM
O=C(c1ccc(Nc2nccn3c(-c4c[nH]nc4C(F)(F)F)cnc23)cc1Cl)N1CCN(C(=O)[C@H]2CCCN2)CC1 [Example 198, [2-chloro-4-[[3-[3-(trifluoromethyl)-1H-pyrazol-4-yl]imidazo[1,2-a]pyrazin-8-yl]amino]phenyl]-[4-[(2R)-pyrrolidine-2-carbonyl]piperazin-1-yl]methanone] | 0.216 µM
N#CCn1cc(-c2cnc3c(Nc4ccc(C(=O)N5CCC(N)CC5)c(Cl)c4)nccn23)c(C(F)(F)F)n1 [Example 202, 2-[4-[8-[4-(4-aminopiperidine-1-carbonyl)-3-chloroanilino]imidazo[1,2-a]pyrazin-3-yl]-3-(trifluoromethyl)pyrazol-1-yl]acetonitrile] | 0.109 µM
CCc1cc(Nc2nccn3c(-c4c[nH]nc4C(F)(F)F)cnc23)ccc1C(=O)NCCOC[C@H](C)N [Example 203, N-[2-[(2S)-2-aminopropoxy]ethyl]-2-ethyl-4-[[3-[3-(trifluoromethyl)-1H-pyrazol-4-yl]imidazo[1,2-a]pyrazin-8-yl]amino]benzamide] | 0.102 µM
CCc1cc(Nc2nccn3c(-c4c[nH]nc4C(F)(F)F)cnc23)ccc1C(=O)NCCOC[C@@H](C)N [Example 204, N-[2-[(2R)-2-aminopropoxy]ethyl]-2-ethyl-4-[[3-[3-(trifluoromethyl)-1H-pyrazol-4-yl]imidazo[1,2-a]pyrazin-8-yl]amino]benzamide] | 0.256 µM
CCOCCCNC(=O)c1ccc(Nc2nccn3c(-c4cn(CC#N)nc4C(F)(F)F)cnc23)cc1CC [Example 205, 4-[[3-[1-(cyanomethyl)-3-(trifluoromethyl)pyrazol-4-yl]imidazo[1,2-a]pyrazin-8-yl]amino]-N-(3-ethoxypropyl)-2-ethylbenzamide] | 0.256 µM
C[C@H](N)C(=O)N1CCN(C(=O)c2ccc(Nc3nccn4c(-c5c[nH]nc5C(F)(F)F)cnc34)cc2Cl)CC1 [Example 206, (2S)-2-amino-1-[4-[2-chloro-4-[[3-[3-(trifluoromethyl)-1H-pyrazol-4-yl]imidazo[1,2-a]pyrazin-8-yl]amino]benzoyl]piperazin-1-yl]propan-1-one] | 0.169 µM
C[C@@H](N)C(=O)N1CCN(C(=O)c2ccc(Nc3nccn4c(-c5c[nH]nc5C(F)(F)F)cnc34)cc2Cl)CC1 [Example 207, (2R)-2-amino-1-[4-[2-chloro-4-[[3-[3-(trifluoromethyl)-1H-pyrazol-4-yl]imidazo[1,2-a]pyrazin-8-yl]amino]benzoyl]piperazin-1-yl]propan-1-one] | 0.205 µM
O=C(c1ccc(Nc2nccn3c(-c4c[nH]nc4C(F)(F)F)cnc23)cc1Cl)N1CCN(C(=O)[C@H]2CCNC2)CC1 [Example 208, [2-chloro-4-[[3-[3-(trifluoromethyl)-1H-pyrazol-4-yl]imidazo[1,2-a]pyrazin-8-yl]amino]phenyl]-[4-[(3S)-pyrrolidine-3-carbonyl]piperazin-1-yl]methanone] | 0.232 µM
O=C(c1ccc(Nc2nccn3c(-c4c[nH]nc4C(F)(F)F)cnc23)cc1Cl)N1CCN(C(=O)[C@@H]2CCCN2)CC1 [Example 209, [2-chloro-4-[[3-[3-(trifluoromethyl)-1H-pyrazol-4-yl]imidazo[1,2-a]pyrazin-8-yl]amino]phenyl]-[4-[(2S)-pyrrolidine-2-carbonyl]piperazin-1-yl]methanone] | 0.105 µM
N#CCn1cc(-c2cnc3c(Nc4ccc(C(=O)N5CCN(C(=O)[C@@H]6CCCN6)CC5)c(Cl)c4)nccn23)c(C(F)(F)F)n1 [Example 210, 2-[4-[8-[3-chloro-4-[4-[(2S)-pyrrolidine-2-carbonyl]piperazine-1-carbonyl]anilino]imidazo[1,2-a]pyrazin-3-yl]-3-(trifluoromethyl)pyrazol-1-yl]acetonitrile] | 0.174 µM
